Assay results taken from article PMC11984388, “A brain-accessible peptide modulates stroke inflammatory response and neurotoxicity by targeting BDNF-receptor TrkB-T1 specific interactome” (Theranostics, 2025).

Assay: Infarct volume after photothrombotic permanent ischemia
Format: in vivo, mice
Conditions: 24 h; for Decrease of infarct volume: versus TMyc, 3 nmol/g i.v. 1 h after damage
Procedure: Permanent focal ischemia was induced in cerebral cortex of adult male and female mice by microvascular photothrombosis as described with modifications. Brain injury involves vascular endothelium damage and platelet activation, followed by microvascular thrombotic occlusion of a particular region selected for illumination using a stereotaxic frame. Coordinates were +0.2 AP, +2 ML relative to Bregma and damaged area corresponded to primary motor and somatosensory cortex. For neuroprotection, a single dose (3 nmol/g) of peptides TMyc or TT1Ct (see below) was administered 1 h after damage initiation. Further details of the procedures, including measurement of infarct volume and evaluation of motor coordination and balance, are detailed as Supplementary material.
Antibodies, chemica ls and recombinant proteins, cell-penetrating peptides , prime rs , commercial as says , experimental models, recombinant DNAs and software ar e des cribe d in the Table S1, included as Supplementary material.
Animal procedures were performed follow ing Europea n Union Directive 2010/63/ EU and were approved by the CS I C and Comunidad de Ma drid (Ref PROEX 276.6/20) ethics committees.
Hous ing facilities were approved by Comunidad de Ma drid (#ES 280790000188) and conform to official regulations. Animals had sta ndard health and immune sta tus and were looked af ter by profes sional caretake rs daily. Ma l e and female mice were kept in groups of up to five in sta ndard IVC cage s while 1–2 pregnant rats occupied sta ndard cage s, always containing bedding and nes ting materials. Animals were under controlled lighting conditions (12 h light cycles ), relative humidity and temperature. Irradiated food and water were provided ad libitum.
We trie d to minimiz e animal suffering and reduce the number of sa cri f i ced animals .
Mi c e model of isc he mia by microv ascular photothr ombosis to study in vivo excitotoxicity This model of permanent focal isc hemia mimics embolic or thrombotic occlus ion of sm a ll ar ter ie s, which is freque ntly found in human stroke, and caus es a focal brain damage with histological and MR I corre lations to human patterns. The procedure was as previously des cribe d with some modific ations . Ma l e and female Ba lb/c OlaHsd mice (23–31 g; 10–16 weeks of age; Envigo Rms , Spain S.L.) were allowed to acc limatize to our facilities for at least 1 week af ter delivery, before isc hemic induction. They were kept with the sa m e cage mates, and daily examined to chec k their health sta tus . Mi c e were anes thetized with isoflurane (5% for induction, 2% for maintenance in oxygen; Abbot Labora tories , Ma drid, Spain) and then placed in a ste reotaxic frame (Naris hige Group, Tokyo, Ja pan). Body temperature was maintained at 36–37°C using a se l f-regulating heating blanket (Cibertec, Ma drid, Spain). A midline sc al p incision was made, the skull was expos ed, and both Bregma and Lambda points were identifie d.
A cold- light (Sc hott KL 2500 LCD; Schott Glas s, Ma inz, Germany) with a fibre optic bundle of 1.5 mm in diameter was centred using a micromanipula tor on the right side , at 0.2 mm anterior and 2.0 mm lateral (+0.2 AP, +2 ML ) relative to Bregma. […] Five minutes later, the brain was illumina ted (600 lms, 3,000 K) through the intact […]
skull for 10 min. Br ain injury encompas se s damage to vas cular endothelium, platelet activation, and subs equent microvascula r thrombotic occlus ion of the irradiate d region. The ar eas underneath this ste reotaxic position that result irradiate d ar e the prima ry motor cortex and the prima ry soma tos ens ory cortex (hindlimb and forelimb). Once completed surgery, the incision was sutured, and mice were allowed to recover. […]

Ac-YGRKKRRQRRRPPFVLFHKIPLDG-NH2 [TT1Ct]
Decrease of infarct volume (female mice): 42%
Infarct volume (%) (male + female mice, 3 nmol/g i.v. 1 h after damage induction, TTC, relative to hemisphere volume, mean ± SEM, n = 19, n = 20): 10 ± 1%
Decrease of infarct volume (male mice): 45%
